Measurements from US12629374B2, “Antimalarial agents” (Merck Sharp & Dohme LLC, priority 2020, dated 2026).

tested on: ring stage parasites; assay: Parasite growth potency assay, 72 hours, LDH readout; type: cell-based; conditions: 72 h, parasite growth measured by LDH assay after 72 hours at 37° C.; 0.7% rings, 2% haematocrit; read-out: EC50
How it was run: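 Parasite growth was quantified by LDH assay after a −80 °C freeze-thaw. Before that, compound was incubated for 72 h at 37 °C under humidified gas with ring-stage cultures adjusted to 0.7% parasitemia and 2% haematocrit in serum- and albumax-supplemented RPMI-Hepes.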

Point of comparison: COCC[C@H](c1cc(F)cc(C(=O)N[C@H]2CC(C)(C)Oc3ccccc32)c1)N1C(=N)NC(C)(C)CC1=O [Example 173, [1-[1-[3-[[(4S)-2,2-dimethylchroman-4-yl]carbamoyl]-5-fluoro-phenyl]-3-methoxy-propyl]-4,4-dimethyl-6-oxo-hexahydropyrimidin-2-ylidene]ammonium; 2,2,2-trifluoroacetate], EC50 1 nM. Against it:
- CCC1(C)CC(=O)N([C@H](CCOC)c2cccc(C(=O)N[C@@H]3c4ccccc4C4(CC4)[C@H]3O)c2)C(=N)N1 (stereo partly drawn) [Example 168, [4-ethyl-1-[(1R)-1-[3-[(2′-hydroxyspiro[cyclopropane-1,3′-indane]-1′-yl)carbamoyl]phenyl]-3-methoxy-propyl]-4-methyl-6-oxo-hexahydropyrimidin-2-ylidene]ammonium; 2,2,2-trifluoroacetate] — within 1.5-fold, 1.4 nM
- COCC[C@H](c1cc(F)cc(C(=O)N[C@@H]2c3ccccc3C[C@H]2O)c1)N1C(=N)NC(C)(C)CC1=O [Example 169, [1-[1-[3-fluoro-5-[[(1R,2R)-2-hydroxyindan-1-yl]carbamoyl]phenyl]-3-methoxy-propyl]-4,4-dimethyl-6-oxo-hexahydropyrimidin-2-ylidene]ammonium; 2,2,2-trifluoroacetate] — 4.7-fold higher, 4.7 nM
- CCC1(CC)CC(=O)N([C@H](CCOC)c2cccc(C(=O)N[C@@H]3c4cc(F)ccc4C[C@H]3O)c2)C(=N)N1 [Example 170, [4,4-diethyl-1-[(1R)-1-[3-[(6-fluoro-2-hydroxy-indan-1-yl)carbamoyl]phenyl]-3-methoxy-propyl]-6-oxo-hexahydropyrimidin-2-ylidene]ammonium; 2,2,2-trifluoroacetate] — within 1.5-fold, 0.7 nM
- CCOCC[C@H](c1cccc(C(=O)N[C@@H]2c3ccccc3C[C@H]2O)c1)N1C(=N)NC(C)(C)CC1=O [Example 171, [1-[3-ethoxy-1-[3-[[(1R,2R)-2-hydroxyindan-1-yl]carbamoyl]phenyl]propyl]-4,4-dimethyl-6-oxo-hexahydropyrimidin-2-ylidene]ammonium; 2,2,2-trifluoroacetate] — 5.2-fold higher, 5.2 nM
- CC[C@@]1(C)CC(=O)N([C@H](CCOC(F)F)c2cccc(C(=O)N[C@@H]3c4ccccc4C[C@H]3O)c2)C(=N)N1 [Example 172, [(4S)-1-[3-(difluoromethoxy)-1-[3-[[(1R,2R)-2-hydroxyindan-1-yl]carbamoyl]phenyl]propyl]-4-ethyl-4-methyl-6-oxo-hexahydropyrimidin-2-ylidene]ammonium; 2,2,2-trifluoroacetate] — 1.7-fold higher, 1.7 nM
- COCC[C@H](c1cc(F)cc(C(=O)N[C@@H]2c3ccccc3OC(C)(C)[C@H]2O)c1)N1C(=N)NC(C)(C)CC1=O [Example 174, [1-[1-[3-fluoro-5-[[(3S,4R)-3-hydroxy-2,2-dimethyl-chroman-4-yl]carbamoyl]phenyl]-3-methoxy-propyl]-4,4-dimethyl-6-oxo-hexahydropyrimidin-2-ylidene]ammonium; 2,2,2-trifluoroacetate] — within 1.5-fold, 0.9 nM
- CCC1(CC)CC(=O)N([C@H](CCOC)c2cc(F)cc(C(=O)N[C@@H]3c4ccccc4OC3(C)COC)c2)C(=N)N1 (stereo partly drawn) [Example 176B, [4,4-diethyl-1-[(1R)-1-[3-fluoro-5-[[2-(methoxymethyl)-2-methyl-3H-benzofuran-3-yl]carbamoyl]phenyl]-3-methoxy-propyl]-6-oxo-hexahydropyrimidin-2-ylidene]ammonium; 2,2,2-trifluoroacetate] — within 1.5-fold, 0.9 nM
- COCC[C@H](c1cccc(C(=O)N[C@H]2CC(C)(C)Oc3ccccc32)c1)N1C(=N)NC(C)(C)CC1=O [Example 177, [1-[(1R)-1-[3-[[(4S)-2,2-dimethylchroman-4-yl]carbamoyl]phenyl]-3-methoxy-propyl]-4,4-dimethyl-6-oxo-hexahydropyrimidin-2-ylidene]ammonium; 2,2,2-trifluoroacetate] — 2.1-fold higher, 2.1 nM
- COCC[C@H](c1cccc(C(=O)N[C@@H]2c3ccccc3OC(C)(C)[C@H]2O)c1)N1C(=N)NC(C)(C)CC1=O [Example 178, [1-[(1R)-1-[3-[[(3S,4R)-3-hydroxy-2,2-dimethyl-chroman-4-yl]carbamoyl]phenyl]-3-methoxy-propyl]-4,4-dimethyl-6-oxo-hexahydropyrimidin-2-ylidene]ammonium; 2,2,2-trifluoroacetate] — 2.4-fold higher, 2.4 nM
- COCC[C@H](c1cccc(C(=O)N[C@@H]2c3ccccc3C[C@H]2O)c1)N1C(=N)NC(C)(C)CC1=O [Example 179, [1-[(1R)-1-[3-[[(1R,2R)-2-hydroxyindan-1-yl]carbamoyl]phenyl]-3-methoxy-propyl]-4,4-dimethyl-6-oxo-hexahydropyrimidin-2-ylidene]ammonium; 2,2,2-trifluoroacetate] — 8.3-fold higher, 8.3 nM
- CCC1(CC)CC(=O)N([C@H](CCOC)c2cccc(C(=O)N[C@@H]3c4ccccc4OC3(C)C)c2)C(=N)N1 [Example 181A, [1-[(1R)-1-[3-[(2,2-dimethyl-3H-benzofuran-3-yl)carbamoyl]phenyl]-3-methoxy-propyl]-4,4-diethyl-6-oxo-hexahydropyrimidin-2-ylidene]ammonium; 2,2,2-trifluoroacetate] — 3-fold higher, 3 nM
- CCC1(CC)CC(=O)N([C@H](CCOC)c2cccc(C(=O)N[C@H]3c4ccccc4OC3(C)C)c2)C(=N)N1 [Example 181B, [1-[(1R)-1-[3-[(2,2-dimethyl-3H-benzofuran-3-yl)carbamoyl]phenyl]-3-methoxy-propyl]-4,4-diethyl-6-oxo-hexahydropyrimidin-2-ylidene]ammonium; 2,2,2-trifluoroacetate] — 71-fold higher, 71.2 nM
- CC1(C)CC(=O)N(Cc2cccc(C(=O)N[C@@H]3c4cc(F)ccc4OC(C)(C)[C@H]3O)c2)C(=N)N1 [Example 182, [1-[[3-[[(3S,4R)-6-fluoro-3-hydroxy-2,2-dimethyl-chroman-4-yl]carbamoyl]phenyl]methyl]-4,4-dimethyl-6-oxo-hexahydropyrimidin-2-ylidene]ammonium; 2,2,2-trifluoroacetate] — 5.4-fold higher, 5.4 nM
- CC1(C)CC(=O)N(Cc2cc(F)cc(C(=O)N[C@@H]3c4ccccc4OC(C)(C)[C@H]3O)c2)C(=N)N1 [Example 183, [1-[[3-fluoro-5-[[(3S,4R)-3-hydroxy-2,2-dimethyl-chroman-4-yl]carbamoyl]phenyl]methyl]-4,4-dimethyl-6-oxo-hexahydropyrimidin-2-ylidene]ammonium; 2,2,2-trifluoroacetate] — 9.1-fold higher, 9.1 nM
- COCC[C@H](c1cccc(C(=O)N[C@@H]2c3ccccc3CC2(O)C(F)(F)F)c1)N1C(=N)NC(C)(C)CC1=O (stereo partly drawn) [Example 188, [1-[(1R)-1-[3-[[2-hydroxy-2-(trifluoromethyl)indan-1-yl]carbamoyl]phenyl]-3-methoxy-propyl]-4,4-dimethyl-6-oxo-hexahydropyrimidin-2-ylidene]ammonium; 2,2,2-trifluoroacetate] — 7.3-fold higher, 7.3 nM
- CCC1(CC)CC(=O)N([C@H](CCOC)c2cccc(C(=O)N[C@@H]3c4ccccc4C4(CC4)[C@H]3O)c2)C(=N)N1 [Example 191A, [4,4-diethyl-1-[(1R)-1-[3-[(2′-hydroxyspiro[cyclopropane-1,3′-indane]-1′-yl)carbamoyl]phenyl]-3-methoxy-propyl]-6-oxo-hexahydropyrimidin-2-ylidene]ammonium; 2,2,2-trifluoroacetate] — within 1.5-fold, 0.7 nM
- CCC1(CC)CC(=O)N([C@H](CCOC)c2cccc(C(=O)N[C@H]3c4ccccc4C4(CC4)[C@@H]3O)c2)C(=N)N1 [Example 191B, [4,4-diethyl-1-[(1R)-1-[3-[(2′-hydroxyspiro[cyclopropane-1,3′-indane]-1′-yl)carbamoyl]phenyl]-3-methoxy-propyl]-6-oxo-hexahydropyrimidin-2-ylidene]ammonium; 2,2,2-trifluoroacetate] — 90-fold higher, 90.2 nM
- CCC1(CC)CC(=O)N([C@H](C)c2cccc(C(=O)N[C@@H]3c4ccccc4C[C@@]3(C)O)c2)C(=N)N1 [Example 192A, 3-[(1R)-1-(4,4-diethyl-2-imino-6-oxo-hexahydropyrimidin-1-yl)ethyl]-N-[(1R,2R)-2-hydroxy-2-methyl-indan-1-yl]benzamide] — 2.1-fold higher, 2.1 nM

same assay, conditions: parasite growth measured by LDH assay after 72 hours at 37° C.; 0.7% rings, 2% haematocrit; read-out: EC50

Point of comparison: CCC1(CC)CC(=O)N([C@H](C)c2cccc(C(=O)N[C@@H]3c4ccccc4C[C@]3(C)O)c2)C(=N)N1 [Example 192B, 3-[(1R)-1-(4,4-diethyl-2-imino-6-oxo-hexahydropyrimidin-1-yl)ethyl]-N-[(1R,2S)-2-hydroxy-2-methyl-indan-1-yl]benzamide], EC50 2.7 nM. Against it:
- COCC[C@H](c1cc(F)cc(C(=O)N[C@@H]2c3ccccc3C[C@@]2(C)O)c1)N1C(=N)NC(C)(C)CC1=O [Example 175A, 3-fluoro-N-[(1R,2R)-2-hydroxy-2-methyl-indan-1-yl]-5-[1-(2-imino-4,4-dimethyl-6-oxo-hexahydropyrimidin-1-yl)-3-methoxy-propyl]benzamide] — 14-fold higher, 37.1 nM
- COCC[C@H](c1cc(F)cc(C(=O)N[C@@H]2c3ccccc3C[C@]2(C)O)c1)N1C(=N)NC(C)(C)CC1=O [Example 175B, 3-fluoro-N-[(1R,2S)-2-hydroxy-2-methyl-indan-1-yl]-5-[1-(2-imino-4,4-dimethyl-6-oxo-hexahydropyrimidin-1-yl)-3-methoxy-propyl]benzamide] — 3.4-fold higher, 9.2 nM
- CCC1(CC)CC(=O)N([C@H](CCOC)c2cccc(C(=O)NC3c4ccccc4C(F)(F)C3O)c2)C(=N)N1 (stereo partly drawn) [Example 189B, [1-[(1R)-1-[3-[(3,3-difluoro-2-hydroxy-indan-1-yl)carbamoyl]phenyl]-3-methoxy-propyl]-4,4-diethyl-6-oxo-hexahydropyrimidin-2-ylidene]ammonium; chloride] — 110-fold higher, 292 nM

same assay, conditions: parasite growth measured by LDH assay after 72 hours at 37° C.; 0.7% rings, 2% haematocrit; trifluoroacetate; read-out: EC50

CCC1(CC)CC(=O)N([C@H](CCOC)c2cccc(C(=O)NC3c4ccccc4C(F)(F)C3O)c2)C(=N)N1 (stereo partly drawn) [Example 189A, [1-[(1R)-1-[3-[(3,3-difluoro-2-hydroxy-indan-1-yl)carbamoyl]phenyl]-3-methoxy-propyl]-4,4-diethyl-6-oxo-hexahydropyrimidin-2-ylidene]ammonium; 2,2,2-trifluoroacetate] gave an EC50 of 0.8 nM.
